system: PBMC; test: ELISPOT (IFNγ, IL-5, IL-10, IL-17, IL-21) of PBMC expanded 14 days with Bla g extract, then stimulated with peptides or peptide pools; type: cell-based, human; set-up: key to Average Magnitude of Response: spot forming cells (SFC) per 10^6 PBMC; Response Rate per Subject: unit not given here; details: non-redundant epitopes; sensitized donors
Method: PBMC Isolation and Cell Cultures: PBMC (peripheral blood mononuclear cells) were isolated from 450 mL (one unit) of blood by density gradient centrifugation as described and cryopreserved. For in vitro expansion of PBMC for peptide screening, cells were cultured in RPMI1640 (Omega Scientific)+5% human AB serum (Gemini Bioscience), GlutaMAX (Gibco), and penicillin/streptomycin (Omega Scientific) at 2×10^6 per mL, stimulated with 10 ug/mL Bla g extract (Greer), and incubated at 37° C. in 5% CO2. Every three days, IL-2 and IL-7 (10 U/mL) were added to the cultures. Cells were harvested for peptide screening at day 14.
ELISPOT Assays: Production of IFNγ, IL-5, IL-17, IL-10, and IL-21 (as representative of TH1, TH2, TH17, TR1, and […], respectively) in response to peptide stimulation was measured by ELISPOT as described previously. […] In brief, 1×10^5 cells per well were incubated with peptide, peptide pool, or Bla g extract (10, 5, and 10 ug/ml, respectively) on anti-lymphokine antibody coated ELISPOT plates (Millipore #MSIPS4510) for 22 hours. Subsequently, secondary anti-lymphokine antibodies were added and incubated for 2 hours, washed, and avidin-peroxidase complex added for 1 hour. Plates were washed and spots developed with 3-amino-9-ethylcarbazole (Sigma #A6926) and Vector Blue (Vector #SK-5300) for IFNγ/IL-5 and IL-10/IL-17 dual plates or TMB (Sigma #T0565) for single IL-21. Criteria for peptide pool positivity were at least 100 spot forming cells (SFC) per 10^6 PBMC, p<0.05, and stimulation index≥2. Criteria for peptide positivity were identical except with a threshold of 20 SFCs.
We synthetized overlapping peptide sets of 15 amino acids in length overlapping by 10 residues and covering the entire sequence of known Bla g Allergens, i.e. Bla g 1-7, 9 and 11, referred from hereafter collectively as BLAGA. A total of 809 BLAGA peptides were arranged in pools, encompassing on average 20 peptides.
To assess T cell reactivity, we utilized a strategy applied to the definition of epitopes from various allergen sources^15,16 utilizing in vitro stimulation with allergen extracts. Here, PBMC from each subject were stimulated in vitro with Bla g extract. After 14 days, pools of overlapping 15-mer peptides from the BLAGA were tested for responses, and positive pools deconvoluted to identify the specific epitopes. As readout, we utilized ELISPOT assays specific for IL-5, IFNγ, IL-10, IL-17 and IL-21, chosen as representative of TH2, TH1, TR1, TH17 and TFH reactivity, respectively.

Row | Sequence | Average Magnitude of Response | Response Rate per Subject
1 | KFEGNKFTIDYNDKG | 14.2 | 4.3
2 | KFTIDYNDKGKAFSA | 32.0 | 11.4
3 | KIGEYKNMIAEGIID | 6.2 | 1.4
4 | KKLQFTYSESLDLDD | 4.2 | 2.9
5 | KLAASDSKSLLRKYL | 43.8 | 7.1
6 | KLGDKEMIQHYTLDQ | 5.0 | 1.4
7 | KLYKMAVAFMLAYPY | 15.8 | 7.1
8 | KNMTYVNTSLVLAFS | 8.4 | 2.9
9 | KNRTTIRGRTKFEGN (listed as Blattella germanica) | 81.7 | 2.9
10 | KQLKVSQIMEAARKL | 4.2 | 4.3
11 | KTPVLEIDGKQTHQS (listed as Blattella germanica) | 57.0 | 14.3
12 | KTPVLSVNATVVRLQ | 3.2 | 1.4
13 | KVFLKNYLVGNAQFK | 6.4 | 1.4
14 | KVIDLLLSLYLDQNE | 3.6 | 7.1
15 | LDYLNHMAKEDLVAN | 13.0 | 10.0
16 | LGHTVCLSGFMGIDL | 3.2 | 2.9

Row | Sequence | Average Magnitude of Response | Response Rate per Subject
17 | LIPVDQIIAIATDYL | 9.8 | 1.4
18 | LKNYQLDSELRIKAF | 3.2 | 1.4
19 | LKYFNMGVQKFWAFD | 19.8 | 8.6
20 | LNAIEFINNIHDLLG | 8.8 | 2.9
21 | LNDYILPAPYEIYPW | 3.0 | 2.9
22 | LNIFTNNLGRINTHV (listed as Blattella germanica) | 57.6 | 4.3
23 | LNQEAHYQFDSIHKF | 22.6 | 2.9
24 | LNTYYSYYYFNYPTF | 4.1 | 2.9
25 | LRLSEHLDYVKNLTV | 3.1 | 1.4
26 | LTVFDSTSCNVVVAS | 4.0 | 2.9
27 | LVFLRNAKIELKPNQ | 4.0 | 2.9
28 | LVYPTSLGFPLKLVL | 4.4 | 2.9
29 | LWEINMIKAIISQLQ | 3.5 | 2.9
30 | MAPSYKLTYCPVKAL | 8.8 | 4.3
31 | MGVQKFWAFDNTTFS | 7.3 | 7.1
32 | MIVDTISDFRAAIAN (listed as Blattella germanica) | 91.4 | 7.1

— patent US11505581B2, “Antigens and T cell epitopes from cockroach and methods of making and using same” (La Jolla Institute for Allergy and Immunology, priority 2015, dated 2022)
